According to ChEMBL document CHEMBL1201862, “PubChem BioAssay data set” (2004):
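Five compound concentrations were applied to cells in 96-well plates for 48 hours; endpoints were derived by simple linear interpolation of the resulting dose-response curve. GI50 is the concentration that inhibits growth by half.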 Calls of active or inactive are those of the source. No stated cut-off is given here; in the data, active = GI50 up to about 1.1 µM and inactive = higher.

Columns and labels:
Assay in all cases: NCI-60 cell line screen, 48 h
[1] = system: RXF 393
[2] = system: CAKI-1
[3] = system: RPMI-8226
[4] = system: UACC-257
[5] = system: OVCAR-8
[6] = system: NCI-H522
[7] = system: IGROV-1
[8] = system: MOLT-4
[9] = system: SN12C
[10] = system: MDA-MB-231
[11] = system: U-251
[12] = system: UACC-62
[13] = system: UO-31
[14] = system: KM12
[15] = system: SR
[16] = system: NCI-H460
[17] = system: HT-29
[18] = system: NCI-H23
[19] = system: SW-620
[20] = system: NCI-H226
[21] = system: OVCAR-3
[22] = system: TK-10
[23] = system: A498
[24] = system: EKVX
[25] = system: M14
[26] = system: PC-3
[27] = system: SK-MEL-28
[28] = system: SK-OV-3
[29] = system: BT-549
[30] = system: 786-0
[31] = system: SF-268
[32] = system: Malme-3M
[33] = system: LOX IMVI
[34] = system: K562
[35] = system: OVCAR-4
[36] = system: HL-60
[37] = system: COLO 205
[38] = system: SF-539
[39] = system: MCF7
[40] = system: SK-MEL-5
[41] = system: SNB-19
[42] = system: DU-145
[43] = system: HCC 2998
[44] = system: MDA-MB-435
[45] = system: HCT-116
[46] = system: A549
[47] = system: CCRF-CEM
[48] = system: Hs-578T
[49] = system: HCT-15
[50] = system: T47D
[51] = system: OVCAR-5
[52] = system: SNB-75
[53] = system: NCI/ADR-RES
[54] = system: SK-MEL-2

## CSC1=C(C(=O)Nc2ccc(Cl)cc2)C(N)=NC1=O
[1]
  GI50: > 100 µM (inactive)
[2]
  GI50: 29 µM (inactive)
[3]
  GI50: > 100 µM (inactive)
[4]
  GI50: > 100 µM (inactive)
[5]
  GI50: > 100 µM (inactive)
[6]
  GI50: > 100 µM (inactive)
[7]
  GI50: 19.7 µM (inactive)
[8]
  GI50: > 100 µM (inactive)
[9]
  GI50: > 100 µM (inactive)
[10]
  GI50: > 100 µM (inactive)
[11]
  GI50: > 100 µM (inactive)
[12]
  GI50: > 100 µM (inactive)
[13]
  GI50: 45.1 µM (inactive)
[14]
  GI50: > 100 µM (inactive)
[15]
  GI50: 37.8 µM (inactive)
[16]
  GI50: > 100 µM (inactive)
[17]
  GI50: > 100 µM (inactive)
[18]
  GI50: > 100 µM (inactive)
[19]
  GI50: > 100 µM (inactive)
[20]
  GI50: > 100 µM (inactive)
[21]
  GI50: > 100 µM (inactive)
[22]
  GI50: > 100 µM (inactive)
[23]
  GI50: > 100 µM (inactive)
[24]
  GI50: > 100 µM (inactive)
[25]
  GI50: > 100 µM (inactive)
[26]
  GI50: > 100 µM (inactive)
[27]
  GI50: > 100 µM (inactive)
[28]
  GI50: > 100 µM (inactive)
[29]
  GI50: > 100 µM (inactive)
[30]
  GI50: > 100 µM (inactive)
[31]
  GI50: > 100 µM (inactive)
[32]
  GI50: > 100 µM (inactive)
[33]
  GI50: > 100 µM (inactive)
[34]
  GI50: > 100 µM (inactive)
[35]
  GI50: > 100 µM (inactive)
[36]
  GI50: > 100 µM (inactive)
[37]
  GI50: > 100 µM (inactive)
[38]
  GI50: > 100 µM (inactive)
[39]
  GI50: > 100 µM (inactive)
[40]
  GI50: > 100 µM (inactive)
[41]
  GI50: > 100 µM (inactive)
[42]
  GI50: > 100 µM (inactive)
[43]
  GI50: > 100 µM (inactive)
[44]
  GI50: > 100 µM (inactive)
[45]
  GI50: > 100 µM (inactive)
[46]
  GI50: > 100 µM (inactive)
[47]
  GI50: > 100 µM (inactive)
[48]
  GI50: > 100 µM (inactive)
[49]
  GI50: > 100 µM
[50]
  GI50: > 100 µM (inactive)
[51]
  GI50: > 100 µM (inactive)
[52]
  GI50: > 100 µM (inactive)
[53]
  GI50: > 100 µM (inactive)
[54]
  GI50: > 100 µM (inactive)
